# Measured values taken from ChEMBL document CHEMBL1152576, “E-Combretastatin and E-resveratrol structural modifications: antimicrobial and cancer cell growth inhibitory beta-E-nitrostyrenes” (Bioorg Med Chem, 2009).
# Active and inactive are the calls of the source. No cut-off for these calls is given here.
# Tested on: OVCAR-3
# Experiment: Cytotoxicity against human OVCAR-3 cells after 48 hrs by sulforhodamine B assay
# Type: functional
# Settings: OVCAR-3, 48 h
row,SMILES,GI50 [µg/mL]
1,CC(=O)Nc1ccc(/C=C/[N+](=O)[O-])cc1,0.65
2,COc1ccc(/C=C/[N+](=O)[O-])cc1OP(=O)(OCc1ccccc1)OCc1ccccc1,> 10

# Tested on: P388
# Experiment: Cytotoxicity against mouse P388 cells after 48 hrs by sulforhodamine B assay
# Type: functional
# Settings: P388, 48 h, read-out: ED50 (the source's name)
row,SMILES,EC50 [µg/mL]
1,CC(=O)Nc1ccc(/C=C/[N+](=O)[O-])cc1,6.2
2,COc1ccc(/C=C/[N+](=O)[O-])cc1OP(=O)(OCc1ccccc1)OCc1ccccc1,2.2

# Tested on: Stenotrophomonas maltophilia
# Experiment: Antimicrobial activity against Stenotrophomonas maltophilia ATCC 13637 assessed clear zone in inhibition per disk by CLSI disk diffusion susceptibility assay
# Type: functional
# Settings: not given
row,SMILES,MIC [µg]
1,CC(=O)Nc1ccc(/C=C/[N+](=O)[O-])cc1,>100
2,COc1ccc(/C=C/[N+](=O)[O-])cc1OP(=O)(OCc1ccccc1)OCc1ccccc1,>100

# Tested on: Candida albicans
# Experiment: Antimicrobial activity against Candida albicans ATCC 90028 assessed clear zone in inhibition per disk by CLSI disk diffusion susceptibility assay
# Type: functional
# Settings: not given
row,SMILES,MIC [µg]
1,CC(=O)Nc1ccc(/C=C/[N+](=O)[O-])cc1,6.25
2,COc1ccc(/C=C/[N+](=O)[O-])cc1OP(=O)(OCc1ccccc1)OCc1ccccc1,>100

# Tested on: Streptococcus pneumoniae
# Experiment: Antimicrobial activity against Streptococcus pneumoniae ATCC 6303 assessed clear zone in inhibition per disk by CLSI disk diffusion susceptibility assay
# Type: functional
# Settings: not given
row,SMILES,MIC [µg]
1,CC(=O)Nc1ccc(/C=C/[N+](=O)[O-])cc1,<6.25
2,COc1ccc(/C=C/[N+](=O)[O-])cc1OP(=O)(OCc1ccccc1)OCc1ccccc1,>100

# Tested on: MCF7
# Experiment: Cytotoxicity against human MCF7 cells after 48 hrs by sulforhodamine B assay
# Type: functional
# Settings: not given
row,SMILES,GI50
1,CC(=O)Nc1ccc(/C=C/[N+](=O)[O-])cc1,inactive
2,COc1ccc(/C=C/[N+](=O)[O-])cc1OP(=O)(OCc1ccccc1)OCc1ccccc1,inactive

# Tested on: Escherichia coli
# Experiment: Antimicrobial activity against Escherichia coli ATCC 25922 assessed clear zone in inhibition per disk by CLSI disk diffusion susceptibility assay
# Type: functional
# Settings: not given
row,SMILES,MIC [µg]
1,CC(=O)Nc1ccc(/C=C/[N+](=O)[O-])cc1,>100
2,COc1ccc(/C=C/[N+](=O)[O-])cc1OP(=O)(OCc1ccccc1)OCc1ccccc1,>100

# Tested on: Enterococcus faecalis
# Experiment: Antimicrobial activity against Enterococcus faecalis ATCC 29212 assessed clear zone in inhibition per disk by CLSI disk diffusion susceptibility assay
# Type: functional
# Settings: not given
row,SMILES,MIC [µg]
1,CC(=O)Nc1ccc(/C=C/[N+](=O)[O-])cc1,>100
2,COc1ccc(/C=C/[N+](=O)[O-])cc1OP(=O)(OCc1ccccc1)OCc1ccccc1,6.25

# Tested on: SK-MEL-5
# Experiment: Cytotoxicity against human SK-MEL-5 cells after 48 hrs by sulforhodamine B assay
# Type: functional
# Settings: not given
row,SMILES,GI50
1,COc1ccc(/C=C/[N+](=O)[O-])cc1OP(=O)(OCc1ccccc1)OCc1ccccc1,inactive

# Same assay, conditions: SK-MEL-5, 48 h
row,SMILES,GI50 [µg/mL]
1,CC(=O)Nc1ccc(/C=C/[N+](=O)[O-])cc1,0.34

# Tested on: DU-145
# Experiment: Cytotoxicity against human DU145 cells after 48 hrs by sulforhodamine B assay
# Type: functional
# Settings: not given
row,SMILES,GI50
1,CC(=O)Nc1ccc(/C=C/[N+](=O)[O-])cc1,inactive

# Same assay, conditions: DU-145, 48 h
row,SMILES,GI50 [µg/mL]
1,COc1ccc(/C=C/[N+](=O)[O-])cc1OP(=O)(OCc1ccccc1)OCc1ccccc1,> 10

# Tested on: SF-295
# Experiment: Cytotoxicity against human SF295 cells after 48 hrs by sulforhodamine B assay
# Type: functional
# Settings: SF-295, 48 h
row,SMILES,GI50 [µg/mL]
1,CC(=O)Nc1ccc(/C=C/[N+](=O)[O-])cc1,1.4
2,COc1ccc(/C=C/[N+](=O)[O-])cc1OP(=O)(OCc1ccccc1)OCc1ccccc1,> 10

# Tested on: Micrococcus luteus
# Experiment: Antimicrobial activity against Micrococcus luteus Presque Isle 456 assessed clear zone in inhibition per disk by CLSI disk diffusion susceptibility assay
# Type: functional
# Settings: not given
row,SMILES,MIC [µg]
1,CC(=O)Nc1ccc(/C=C/[N+](=O)[O-])cc1,>100
2,COc1ccc(/C=C/[N+](=O)[O-])cc1OP(=O)(OCc1ccccc1)OCc1ccccc1,3.12

# Tested on: Cryptococcus neoformans
# Experiment: Antimicrobial activity against Cryptococcus neoformans ATCC 90112 assessed clear zone in inhibition per disk by CLSI disk diffusion susceptibility assay
# Type: functional
# Settings: not given
row,SMILES,MIC [µg]
1,CC(=O)Nc1ccc(/C=C/[N+](=O)[O-])cc1,<6.25
2,COc1ccc(/C=C/[N+](=O)[O-])cc1OP(=O)(OCc1ccccc1)OCc1ccccc1,>100

# Tested on: BXPC-3
# Experiment: Cytotoxicity against human BxPC3 cells after 48 hrs by sulforhodamine B assay
# Type: functional
# Settings: not given
row,SMILES,GI50
1,CC(=O)Nc1ccc(/C=C/[N+](=O)[O-])cc1,inactive

# Same assay, conditions: BXPC-3, 48 h
row,SMILES,GI50 [µg/mL]
1,COc1ccc(/C=C/[N+](=O)[O-])cc1OP(=O)(OCc1ccccc1)OCc1ccccc1,> 10

# Tested on: not listed separately
# Experiment: Inhibition of tubulin polymerization
# Settings: not given
row,SMILES,IC50 [µM]
1,CC(=O)Nc1ccc(/C=C/[N+](=O)[O-])cc1,11
2,COc1ccc(/C=C/[N+](=O)[O-])cc1OP(=O)(OCc1ccccc1)OCc1ccccc1,10

# Tested on: SF-268
# Experiment: Cytotoxicity against human SF268 cells after 48 hrs by sulforhodamine B assay
# Type: functional
# Settings: not given
row,SMILES,GI50
1,CC(=O)Nc1ccc(/C=C/[N+](=O)[O-])cc1,inactive
2,COc1ccc(/C=C/[N+](=O)[O-])cc1OP(=O)(OCc1ccccc1)OCc1ccccc1,inactive

# Tested on: KM-20L2
# Experiment: Cytotoxicity against human KM20L2 cells after 48 hrs by sulforhodamine B assay
# Type: functional
# Settings: KM-20L2, 48 h
row,SMILES,GI50 [µg/mL]
1,CC(=O)Nc1ccc(/C=C/[N+](=O)[O-])cc1,1.1
2,COc1ccc(/C=C/[N+](=O)[O-])cc1OP(=O)(OCc1ccccc1)OCc1ccccc1,> 10

# Tested on: Neisseria gonorrhoeae
# Experiment: Antimicrobial activity against Neisseria gonorrhoeae ATCC 49226 assessed clear zone of inhibition measured per disk by CLSI disk diffusion susceptibility assay
# Type: functional
# Settings: not given
row,SMILES,MIC [µg]
1,CC(=O)Nc1ccc(/C=C/[N+](=O)[O-])cc1,<6.25
2,COc1ccc(/C=C/[N+](=O)[O-])cc1OP(=O)(OCc1ccccc1)OCc1ccccc1,0.78

# Tested on: NCI-H460
# Experiment: Cytotoxicity against human NCI-H460 cells after 48 hrs by sulforhodamine B assay
# Type: functional
# Settings: NCI-H460, 48 h
row,SMILES,GI50 [µg/mL]
1,CC(=O)Nc1ccc(/C=C/[N+](=O)[O-])cc1,0.7
2,COc1ccc(/C=C/[N+](=O)[O-])cc1OP(=O)(OCc1ccccc1)OCc1ccccc1,> 10

# Tested on: A498
# Experiment: Cytotoxicity against human A498 cells after 48 hrs by sulforhodamine B assay
# Type: functional
# Settings: not given
row,SMILES,GI50
1,COc1ccc(/C=C/[N+](=O)[O-])cc1OP(=O)(OCc1ccccc1)OCc1ccccc1,inactive

# Same assay, conditions: A498, 48 h
row,SMILES,GI50 [µg/mL]
1,CC(=O)Nc1ccc(/C=C/[N+](=O)[O-])cc1,0.96

# Tested on: Staphylococcus aureus
# Experiment: Antimicrobial activity against Staphylococcus aureus ATCC 29213 assessed clear zone in inhibition per disk by CLSI disk diffusion susceptibility assay
# Type: functional
# Settings: not given
row,SMILES,MIC [µg]
1,CC(=O)Nc1ccc(/C=C/[N+](=O)[O-])cc1,<6.25
2,COc1ccc(/C=C/[N+](=O)[O-])cc1OP(=O)(OCc1ccccc1)OCc1ccccc1,3.12

# Tested on: Enterobacter cloacae
# Experiment: Antimicrobial activity against Enterobacter cloacae ATCC 13047 assessed clear zone in inhibition per disk by CLSI disk diffusion susceptibility assay
# Type: functional
# Settings: not given
row,SMILES,MIC [µg]
1,CC(=O)Nc1ccc(/C=C/[N+](=O)[O-])cc1,>100
2,COc1ccc(/C=C/[N+](=O)[O-])cc1OP(=O)(OCc1ccccc1)OCc1ccccc1,>100
